Measurements published in patent US11505543B2, “4-oxo-3,4-dihydroquinazoline compounds as inhibitors of human immunodeficiency virus replication” (VIIV HEALTHCARE UK (NO.5) LIMITED, priority 2018, dated 2022).

Columns and labels:
[1] = tested on: recombinant NL4-3 virus (nef section replaced with Renilla luciferase gene) in MT-2 cells; assay: HIV cell culture assay (antiviral activity, luciferase readout); assay type: cell-based; details: Renilla, NL43, MT-2 cells infected for 4-5 days with recombinant NL4-3 Renilla luciferase virus, serial dilutions of compound
Procedure, shortened: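 EC50 was derived by median-effect curve fitting of luciferase activity. The signal comes from MT-2 cells infected for 4–5 days with 293T-produced NL4-3 reporter virus, nef partly replaced by Renilla luciferase, in the presence of serially diluted compound.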

[2] = Compound cytotoxicity, XTT-based colorimetric assay; assay type: cell-based; details: human, uninfected MT2 cells, day 4, XTT
Procedure, shortened: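 Run under the antiviral-assay protocol but without virus. Viability was read on day 4 and CC50 values were derived from the readout.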

SMILES | EC50 [1] [nM] | CC50 at 4 day [2] [nM]
CNC(=O)c1ccc(-c2ccc3c(=O)n(-c4ccc(Cl)c5c(NS(C)(=O)=O)nn(C)c45)c([C@H](Cc4cc(F)cc(F)c4)NC(=O)Cn4nc(C(F)F)c5c4C(F)(F)[C@@H]4C[C@H]54)nc3c2)cc1 (atropisomer, axis not shown; (aR)) [Example 62, 4-(3-(4-chloro-1-methyl-3-(methylsulfonamido)-1H-indazol-7-yl)-2-((S)-1-(2-((3bS,4aR)-3-(difluoromethyl)-5,5-difluoro-3b,4,4a,5-tetrahydro-1H-cyclopropa[3,4]cyclopenta[1,2-c]pyrazol-1-yl)acetamido)-2-(3,5-difluorophenyl)ethyl)-4-oxo-3,4-dihydroquinazolin-7-yl)-N-methylbenzamide] | 0.48 | > 1000
Cn1nc(NS(C)(=O)=O)c2c(Cl)ccc(-n3c([C@H](Cc4cc(F)cc(F)c4)NC(=O)Cn4nc(C(F)F)c5c4C(F)(F)[C@@H]4C[C@H]54)nc4cc(-c5ccc(Cl)cc5Cl)ccc4c3=O)c21 (atropisomer, axis not shown; (aR)) [Example 63, N-((S)-1-(3-(4-chloro-1-methyl-3-(methylsulfonamido)-1H-indazol-7-yl)-7-(2,4-dichlorophenyl)-4-oxo-3,4-dihydroquinazolin-2-yl)-2-(3,5-difluorophenyl)ethyl)-2-((3bS,4aR)-3-(difluoromethyl)-5,5-difluoro-3b,4,4a,5-tetrahydro-1H-cyclopropa[3,4]cyclopenta[1,2-c]pyrazol-1-yl)acetamide] | 7 | > 1000
Cn1nc(NS(C)(=O)=O)c2c(Cl)ccc(-n3c([C@H](Cc4cc(F)cc(F)c4)NC(=O)Cn4nc(C(F)F)c5c4C(F)(F)[C@@H]4C[C@H]54)nc4cc(-c5cccc(F)c5F)ccc4c3=O)c21 (atropisomer, axis not shown; (aR)) [Example 68, N-((S)-1-(3-(4-chloro-1-methyl-3-(methylsulfonamido)-1H-indazol-7-yl)-7-(2,3-difluorophenyl)-4-oxo-3,4-dihydroquinazolin-2-yl)-2-(3,5-difluorophenyl)ethyl)-2-((3bS,4aR)-3-(difluoromethyl)-5,5-difluoro-3b,4,4a,5-tetrahydro-1H-cyclopropa[3,4]cyclopenta[1,2-c]pyrazol-1-yl)acetamide] | 0.63 | > 1000
COc1c(F)cc(-c2ccc3c(=O)n(-c4ccc(Cl)c5c(NS(C)(=O)=O)nn(C)c45)c([C@H](Cc4cc(F)cc(F)c4)NC(=O)Cn4nc(C(F)F)c5c4C(F)(F)[C@@H]4C[C@H]54)nc3c2)cc1F (atropisomer, axis not shown; (aR)) [Example 70, N-((S)-1-(3-(4-chloro-1-methyl-3-(methylsulfonamido)-1H-indazol-7-yl)-7-(3,5-difluoro-4-methoxyphenyl)-4-oxo-3,4-dihydroquinazolin-2-yl)-2-(3,5-difluorophenyl)ethyl)-2-((3bS,4aR)-3-(difluoromethyl)-5,5-difluoro-3b,4,4a,5-tetrahydro-1H-cyclopropa[3,4]cyclopenta[1,2-c]pyrazol-1-yl)acetamide] | 0.92 | > 1000
Cn1nc(NS(C)(=O)=O)c2c(Cl)ccc(-n3c([C@H](Cc4cc(F)cc(F)c4)NC(=O)Cn4nc(C(F)F)c5c4C(F)(F)[C@@H]4C[C@H]54)nc4cc(-c5cccnc5)ccc4c3=O)c21 (atropisomer, axis not shown; (aR)) [Example 71, N-((S)-1-(3-(4-chloro-1-methyl-3-(methylsulfonamido)-1H-indazol-7-yl)-4-oxo-7-(pyridin-3-yl)-3,4-dihydroquinazolin-2-yl)-2-(3,5-difluorophenyl)ethyl)-2-((3bS,4aR)-3-(difluoromethyl)-5,5-difluoro-3b,4,4a,5-tetrahydro-1H-cyclopropa[3,4]cyclopenta[1,2-c]pyrazol-1-yl)acetamide] | 0.18 | > 1000
Cn1nc(NS(C)(=O)=O)c2c(Cl)ccc(-n3c([C@H](Cc4cc(F)cc(F)c4)NC(=O)Cn4nc(C(F)F)c5c4C(F)(F)[C@@H]4C[C@H]54)nc4cc(-c5ccc(C(=O)O)c(Cl)c5)ccc4c3=O)c21 (atropisomer, axis not shown; (aR)) [Example 75, 2-chloro-4-(3-(4-chloro-1-methyl-3-(methylsulfonamido)-1H-indazol-7-yl)-2-((S)-1-(2-((3bS,4aR)-3-(difluoromethyl)-5,5-difluoro-3b,4,4a,5-tetrahydro-1H-cyclopropa[3,4]cyclopenta[1,2-c]pyrazol-1-yl)acetamido)-2-(3,5-difluorophenyl)ethyl)-4-oxo-3,4-dihydroquinazolin-7-yl)benzoic acid] | 29 | > 1000
Cn1nc(NS(C)(=O)=O)c2c(Cl)ccc(-n3c([C@H](Cc4cc(F)cc(F)c4)NC(=O)Cn4nc(C(F)F)c5c4C(F)(F)[C@@H]4C[C@H]54)nc4cc(-c5cc[nH]n5)ccc4c3=O)c21 (atropisomer, axis not shown; (aR)) [Example 78, N-((S)-1-(3-(4-chloro-1-methyl-3-(methylsulfonamido)-1H-indazol-7-yl)-4-oxo-7-(1H-pyrazol-3-yl)-3,4-dihydroquinazolin-2-yl)-2-(3,5-difluorophenyl)ethyl)-2-((3bS,4aR)-3-(difluoromethyl)-5,5-difluoro-3b,4,4a,5-tetrahydro-1H-cyclopropa[3,4]cyclopenta[1,2-c]pyrazol-1-yl)acetamide] | 0.12 | > 1000
Cn1nc(NS(C)(=O)=O)c2c(Cl)ccc(-n3c([C@H](Cc4cc(F)cc(F)c4)NC(=O)Cn4nc(C(F)F)c5c4C(F)(F)[C@@H]4C[C@H]54)nc4cc(-c5ccc6c7c(ccnc57)CCO6)ccc4c3=O)c21 (atropisomer, axis not shown; (aR)) [Example 82, N-((S)-1-(3-(4-chloro-1-methyl-3-(methylsulfonamido)-1H-indazol-7-yl)-7-(2,3-dihydropyrano[4,3,2-de]quinolin-7-yl)-4-oxo-3,4-dihydroquinazolin-2-yl)-2-(3,5-difluorophenyl)ethyl)-2-((3bS,4aR)-3-(difluoromethyl)-5,5-difluoro-3b,4,4a,5-tetrahydro-1H-cyclopropa[3,4]cyclopenta[1,2-c]pyrazol-1-yl)acetamide] | 7 | > 1000
Cn1nc(NS(C)(=O)=O)c2c(Cl)ccc(-n3c([C@H](Cc4cc(F)cc(F)c4)NC(=O)Cn4nc(C(F)F)c5c4C(F)(F)[C@@H]4C[C@H]54)nc4cc(-c5cncnc5)ccc4c3=O)c21 (atropisomer, axis not shown; (aR)) [Example 84, N-((S)-1-(3-(4-chloro-1-methyl-3-(methylsulfonamido)-1H-indazol-7-yl)-4-oxo-7-(pyrimidin-5-yl)-3,4-dihydroquinazolin-2-yl)-2-(3,5-difluorophenyl)ethyl)-2-((3bS,4aR)-3-(difluoromethyl)-5,5-difluoro-3b,4,4a,5-tetrahydro-1H-cyclopropa[3,4]cyclopenta[1,2-c]pyrazol-1-yl)acetamide] | 0.068 | > 1000
COc1cccc(OC)c1-c1ccc2c(=O)n(-c3ccc(Cl)c4c(NS(C)(=O)=O)nn(C)c34)c([C@H](Cc3cc(F)cc(F)c3)NC(=O)Cn3nc(C(F)F)c4c3C(F)(F)[C@@H]3C[C@H]43)nc2c1 (atropisomer, axis not shown; (aR)) [Example 86, N-((S)-1-(3-(4-chloro-1-methyl-3-(methylsulfonamido)-1H-indazol-7-yl)-7-(2,6-dimethoxyphenyl)-4-oxo-3,4-dihydroquinazolin-2-yl)-2-(3,5-difluorophenyl)ethyl)-2-((3bS,4aR)-3-(difluoromethyl)-5,5-difluoro-3b,4,4a,5-tetrahydro-1H-cyclopropa[3,4]cyclopenta[1,2-c]pyrazol-1-yl)acetamide] | 0.5 | > 1000
Cn1nc(NS(C)(=O)=O)c2c(Cl)ccc(-n3c([C@H](Cc4cc(F)cc(F)c4)NC(=O)Cn4nc(C(F)F)c5c4C(F)(F)[C@@H]4C[C@H]54)nc4cc(-c5ccccn5)ccc4c3=O)c21 (atropisomer, axis not shown; (aR)) [Example 87, N-((S)-1-(3-(4-chloro-1-methyl-3-(methylsulfonamido)-1H-indazol-7-yl)-4-oxo-7-(pyridin-2-yl)-3,4-dihydroquinazolin-2-yl)-2-(3,5-difluorophenyl)ethyl)-2-((3bS,4aR)-3-(difluoromethyl)-5,5-difluoro-3b,4,4a,5-tetrahydro-1H-cyclopropa[3,4]cyclopenta[1,2-c]pyrazol-1-yl)acetamide] | 0.09 | > 1000
Cc1ccccc1-c1ccc2c(=O)n(-c3ccc(Cl)c4c(NS(C)(=O)=O)nn(C)c34)c([C@H](Cc3cc(F)cc(F)c3)NC(=O)Cn3nc(C(F)F)c4c3C(F)(F)[C@@H]3C[C@H]43)nc2c1 (atropisomer, axis not shown; (aR)) [Example 88, N-((S)-1-(3-(4-chloro-1-methyl-3-(methylsulfonamido)-1H-indazol-7-yl)-4-oxo-7-(o-tolyl)-3,4-dihydroquinazolin-2-yl)-2-(3,5-difluorophenyl)ethyl)-2-((3bS,4aR)-3-(difluoromethyl)-5,5-difluoro-3b,4,4a,5-tetrahydro-1H-cyclopropa[3,4]cyclopenta[1,2-c]pyrazol-1-yl)acetamide] | 0.73 | > 1000
Cc1n[nH]c(C)c1-c1ccc2c(=O)n(-c3ccc(Cl)c4c(NS(C)(=O)=O)nn(C)c34)c([C@H](Cc3cc(F)cc(F)c3)NC(=O)Cn3nc(C(F)F)c4c3C(F)(F)[C@@H]3C[C@H]43)nc2c1 (atropisomer, axis not shown; (aR)) [Example 89, N-((S)-1-(3-(4-chloro-1-methyl-3-(methylsulfonamido)-1H-indazol-7-yl)-7-(3,5-dimethyl-1H-pyrazol-4-yl)-4-oxo-3,4-dihydroquinazolin-2-yl)-2-(3,5-difluorophenyl)ethyl)-2-((3bS,4aR)-3-(difluoromethyl)-5,5-difluoro-3b,4,4a,5-tetrahydro-1H-cyclopropa[3,4]cyclopenta[1,2-c]pyrazol-1-yl)acetamide] | 3.4 | > 1000
